Results on 15 compounds are retold here after PubChem BioAssay (NCI).

Holding throughout (experiment): NCI tumour cell line growth inhibition, 48 h
The subject of test [1] is TK-10 renal.
The subject of test [2] is BT-549 breast.
Test [3] deals with A549 NSCLC.
Test [4] deals with HL-60(TB) leukemia.
Test [5] has as its system SF-295 CNS.
The test system of test [6] is NCI/ADR-RES ovarian.
Test [7] has as its system SK-MEL-28 melanoma.
In test [8] the test system is SK-MEL-2 melanoma.
In test [9] the test system is PC-3 prostate.
Test [10] has as its system A498 renal.
Test [11] concerns HCT-15 colon.
The test system of test [12] is CAKI-1 renal.
For test [13], the system named is CCRF-CEM leukemia.
Test [14] concerns KM12 colon.
Test [15] relates to SF-268 CNS.
For test [16], the system named is SF-539 CNS.
In test [17] the test system is 786-0 renal.
Test [18] relates to MDA-MB-231 breast.
The subject of test [19] is SK-OV-3 ovarian.
Test [20] relates to NCI-H226 lung.

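Step 1: Grow cells in 96-well plates. Step 2: Expose to compound for 48 hours at 5 concentrations. Step 3: Interpolate endpoints linearly; if unreached, use highest concentration. At the TGI there is no net growth.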

For `CC1=NN(C(=O)CC(=O)Nc2ccccc2Cl)C(=O)C1N=Nc1ccc(C(=O)O)cc1` (configuration not stated), the TGI in test [1], in [2], in test [3], in test [4], in test [5] and in [6] was > 100 µM in each case. Also, the TGI in test [7], in [8], in test [9], in test [10], in test [11] and in [12] was > 100 µM throughout. Moreover, the TGI in test [13], in test [14], in [15], in test [16], in [17] and in test [18] was > 100 µM each time.
With `COc1ccccc1C(C1=C(O)COC1=O)c1cc2c(cc1OC(C)=O)OCO2` (configuration not stated), the TGI in test [1], in [2], in test [3], in [4], in test [5] and in [6] was > 100 µM throughout. Further, the TGI in test [7], in [9], in [10], in [19], in test [11] and in [12] was > 100 µM each time. Further, the TGI in test [13], in test [14], in test [15], in test [16], in [17] and in test [20] was > 100 µM in each case. In test [18], the TGI is > 100 µM.
In the case of `N[C@H]1CCN(c2c(F)cc3c(=O)c(C(=O)O)cn4c3c2Oc2cc3c(ccc5ccccc53)cc2-4)C1`, the TGI in test [1], in test [2], in test [3], in test [4], in [5] and in test [6] was > 100 µM throughout. The TGI was 43.5 µM in test [8]; 6.34 µM in test [9]; > 100 µM in test [10]; > 100 µM in [19]; > 100 µM in test [11]; > 100 µM in test [12]. The TGI is > 100 µM in [14]; 10.6 µM in test [16]; > 100 µM in test [17]; 58.5 µM in test [20]; 0.864 µM in test [18].
Regarding `CN(C)CCn1c(=O)c2ccc3c4c(nn3CCN(C)C)c3cc(N)ccc3n(c1=O)c24`, the TGI in [1] is 3.8 µM; in [2], 0.78 µM; in test [3], 0.114 µM; in test [4], 0.506 µM; in test [5], 0.584 µM; in test [6] it was 0.749 µM. The TGI was found to be 0.394 µM in test [7]; 0.089 µM in [8]; 0.114 µM in [9]; 0.364 µM in test [10]; 0.621 µM in test [19]; 0.222 µM in test [11]. The TGI turned out to be 1.47 µM in test [12]; 0.63 µM in test [14]; 0.221 µM in test [15]; 0.579 µM in test [16]; 0.0573 µM in [17]; 0.759 µM in test [20]. This compound showed a TGI in test [18] of 0.195 µM.
For `COc1ccc(CNc2nc3cc(C(F)(F)F)ccc3nc2C(=O)O)cc1OC`, the TGI in test [2] was > 100 µM; in [3], > 100 µM; in test [5], > 100 µM; in test [6] it was > 100 µM; in test [7], > 100 µM; in test [8], 51.8 µM. The TGI in test [9] was > 100 µM; in test [10] it was 73.2 µM; in [19], > 100 µM; in [11], > 100 µM; in test [12], > 100 µM; in test [13], 92.9 µM. In addition, the TGI in [14], in [16], in [17], in test [20] and in test [18] was > 100 µM in each case.
Regarding `CCCCCCCCCCCCn1c(=O)cc(NCCCC)c2cc3c(NCCCC)cc(=O)n(CCCCCCCCCCCC)c3nc21`, the TGI in [1], in test [2], in test [3], in [5], in test [6] and in test [7] was > 100 µM throughout. In addition, the TGI in test [8], in [9], in test [10], in [19], in test [11] and in [12] was > 100 µM in each case. The TGI in test [14], in test [15], in test [17], in [20] and in test [18] was > 100 µM in each case.
For `CC1=C2C(=O)OCC23C=COC3(C)O1` (configuration not stated), the TGI is > 100 µM in test [1]; > 100 µM in test [2]; > 100 µM in [3]; > 100 µM in test [5]; > 100 µM in test [6]; 46.3 µM in [7]. The TGI in test [8] was > 100 µM; in test [9] it was > 100 µM; in test [10] it was > 100 µM; in [19] it was > 100 µM; in test [11] it was > 100 µM; in test [12], 68.8 µM. Besides, the TGI in [13] was > 100 µM; in test [14], 95.9 µM; in test [15], > 100 µM; in test [16] it was 65.9 µM; in test [17], > 100 µM; in test [20] it was 97.8 µM. The TGI in test [18] is > 100 µM.
As to `Cc1ccc(S(=O)(=O)OC2=C/C(=N\c3onc(C)c3C)c3ccccc3C2=O)cc1`, the TGI in [1] is 92.7 µM; in [2], 71.9 µM; in test [3], > 100 µM; in test [4], > 100 µM; in test [5], > 100 µM; in [6] it was 77.1 µM. Besides, the TGI in [7] was > 100 µM; in [8] it was 26 µM; in test [9] it was 40.1 µM; in [10], > 100 µM; in [19], > 100 µM; in test [11] it was > 100 µM. Also, the TGI was 37.8 µM in [12]; 43 µM in test [14]; 77.5 µM in [15]; 79 µM in test [16]; > 100 µM in test [17]; > 100 µM in [20]. This compound also gave a TGI in [18] of 41.6 µM.
With `OCCOCn1cc(Cn2ncc3c(SCc4ccccc4)ncnc32)nn1`, the TGI in test [1] is > 100 µM; in test [2], > 100 µM; in test [3], > 100 µM; in test [4], 45.1 µM; in test [5] it was > 100 µM; in [6], > 100 µM. The TGI in [7], in test [8], in [9], in [10], in test [19] and in test [11] was > 100 µM throughout. For the same compound, the TGI in test [12], in test [14], in [15], in test [16], in test [17] and in test [20] was > 100 µM throughout. In addition, the TGI in test [18] is > 100 µM.
Take `O=c1[nH]c(-c2cccc(F)c2)nc2ccccc12`: the TGI was 58.9 µM in [1]; > 68.8 µM in test [2]; > 100 µM in [3]; > 100 µM in test [4]; > 72.7 µM in test [5]; > 100 µM in test [6]. In addition, the TGI in [7] is > 100 µM; in test [8], > 100 µM; in [9], > 100 µM; in [10], > 73.2 µM; in [19] it was > 61.3 µM; in test [11], > 100 µM. Moreover, the TGI in test [12], in test [13], in test [14], in test [15], in test [17] and in test [20] was > 100 µM throughout. For the same compound, the TGI in test [18] is > 65.9 µM.
On to `Cc1cc2c(c(C=Nc3ccc([N+](=O)[O-])cc3)c1)OC1(C=C2)Oc2ccccc2C(=O)N1C` (configuration not stated), for which the TGI is 74.2 µM in test [1]; 58.7 µM in [2]; > 100 µM in test [3]; > 100 µM in [4]; 77.1 µM in [5]; 49.1 µM in test [6]. Besides, the TGI in test [7] was found to be 44.8 µM; in [8] it was 57.9 µM; in [9], 44.4 µM; in test [10], 61.6 µM; in [19], 59.8 µM; in test [11], 39.4 µM. Also, the TGI amounted to 48.4 µM in test [12]; 39.8 µM in test [13]; 46.2 µM in test [14]; 51.2 µM in [15]; 54.3 µM in test [17]; 46 µM in [20]. Besides, the TGI in test [18] is 45 µM.
`COc1cccc2c(NNc3ccccc3)c3ccc([N+](=O)[O-])cc3nc12`: the TGI is > 100 µM in [1]; 71.4 µM in test [2]; > 100 µM in [3]; > 100 µM in [5]; > 100 µM in test [6]; > 100 µM in [7]. Moreover, the TGI in test [8], in test [9], in [10], in test [19], in test [11] and in test [12] was > 100 µM each time. Also, the TGI in test [13] was > 100 µM; in test [14] it was 46.1 µM; in test [15] it was > 100 µM; in test [16], > 100 µM; in test [17], 73.3 µM; in test [20], > 100 µM. Moreover, the TGI in test [18] is > 100 µM.
In the case of `Cn1c(=O)c2c(no[n+]2[O-])n(C)c1=O`, the TGI in test [1] is 60.7 µM; in test [2], 51.9 µM; in test [3] it was > 100 µM; in test [5], > 100 µM; in test [6], 46 µM; in [8], > 100 µM. Moreover, the TGI in test [9] is > 100 µM; in test [10], 48 µM; in [19], > 100 µM; in [11] it was > 100 µM; in [12] it was 35.2 µM; in [13], > 100 µM. The TGI was > 100 µM in [14]; 55.7 µM in test [15]; > 100 µM in test [16]; 71.8 µM in test [17]; 59.3 µM in test [20]; 48.1 µM in test [18].
On to `O=C1C2=Cc3ccccc3OC2(O)Oc2cc(O)ccc21` (configuration not stated), for which the TGI in test [1], in test [2], in test [3], in test [5], in test [6] and in test [7] was > 100 µM each time. Also, the TGI in test [8], in test [9], in [10], in [19], in test [11] and in [12] was > 100 µM each time. For the same compound, the TGI in [13] was 88.7 µM; in test [14], > 100 µM; in test [15] it was > 100 µM; in test [16], > 100 µM; in test [17] it was > 100 µM; in test [20], > 100 µM. Moreover, the TGI in [18] is > 100 µM.
With `CCOC(=O)c1sc2nc(SC)nc3c2c1N=CN3c1ccccc1Cl`, the TGI in test [1], in test [2], in [3], in [4], in [5] and in [6] was > 100 µM in each case. Further, the TGI was > 100 µM in [7]; > 100 µM in test [8]; > 100 µM in [9]; 56.3 µM in test [10]; > 100 µM in test [19]; > 100 µM in test [11]. The TGI is 89.1 µM in [12]; > 100 µM in test [13]; > 100 µM in test [14]; > 100 µM in [15]; 33.6 µM in test [17]; > 100 µM in [20]. The TGI in test [18] was > 100 µM.
